Assay results taken from patent US20230072421A1, “TARGETED RADIOPHARMACEUTICALS FOR THE DIAGNOSIS AND TREATMENT OF PROSTATE CANCER” (Bayer AS, priority 2019, published 2023).

How the values were obtained:
VCaP cells = experiment: Cell proliferation assay (CellTiter-Glo, 5-day exposure), VCaP; assay type: cell-based; settings: 4000 cells/well, Th-227 labelled at 375 kBq/nmol, mean of 1 to 6 experiments
Outline: (§1)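 Thorium-227-labelled PSMA small-molecule ligands were tested on prostate cancer lines seeded at 4000 cells/well (VCaP) or 1000 cells/well (22Rv1, C4-2, LNCaP) and incubated overnight at 37 °C, 5% CO2. Viability was read by CellTiter-Glo luminescence at treatment start (sister plates) and after 5-day compound exposure.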

C4-2 cells = experiment: Cell proliferation assay (CellTiter-Glo, 5-day exposure), C4-2; assay type: cell-based; settings: C4-2, 1000 cells/well, Th-227 labelled at 375 kBq/nmol, mean of 1 to 6 experiments
Outline: as §1

LNCaP cells = experiment: Cell proliferation assay (CellTiter-Glo, 5-day exposure), LNCaP; assay type: cell-based, human; settings: LNCaP, 1000 cells/well; Th-227 labelled at 375 kBq/nmol; 5-day exposure; mean of 1 to 6 experiments
Procedure: Inhibition of cell proliferation of Thorium-227 labeled PMSA SMOL ligands was tested different prostate cancer cell lines, namely 22Rv1, VCaP, C4-2 (all from ATCC, Manassas, Va., USA) and LNCaP (DMSZ, Braunschweig). Cells were seeded using the following conditions in 384 well plates (Corning) in 30 μl of growth media at 4000 cells/well for VCaP cells and 1000 cells/well for 22Rv1, C4-2 and LNCaP cells.
Cells were cultivated an incubator at 37° C. and 5% C02 over night. On the following days cells were treated in triplicates with serial dilutions of PSMA-SMOLs labeled with Th-227 at a specific activity of 375 kBq/nmol (RCP>70% as assessed by iTLC analysis; compounds where RCP was between 50-70% in individual experiments are marked with an * in the table) using a D300e Digital Dispenser (Tecan). In sister plates cell viability at treatment start (d=0) was determined using CellTiter-Glo® assay (CTG, Promega, Madison, Wis., USA), by adding 30 μl per well CTG solution, incubation for 10 min and reading of Luminescence in a PheraStarFSX instrument (BMG Labtech). After a 5-day exposure in the presenced of test compounds, cell viability of treated or untreated control cells was determined again using CellTiter-Glo® assay (Promega, Madison, Wis., USA). […] The DRC software is a Biobook Spreadsheet that was developed by Bayer AG and Bayer Business Services on the IDBS E-Workbook Suite platform (IDBS: ID Business Solutions Ltd., Guildford, UK).

22Rv1 cells = experiment: Cell proliferation assay (CellTiter-Glo, 5-day exposure), 22Rv1; assay type: cell-based; settings: 22Rv1, 1000 cells/well, Th-227 labelled at 375 kBq/nmol, mean of 1 to 6 experiments
Outline: as §1

[1] = tested on: LNCaP human prostate cancer cells; experiment: LNCaP xenograft efficacy study (T/C tumor area); assay type: in vivo, SCID mice
Outline: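 SCID mice with testosterone pellet bearing s.c. flank LNCaP xenografts (5×10^6 cells in Matrigel) were treated i.v. with a defined radioactive dose once tumors reached 35-50 mm^2 (n=10/group). Tumor area (caliper, longest diameter × perpendicular) measured 2-3× weekly; T/C ratio calculated from tumor areas when vehicle group closed.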

[2] = Biodistribution study in LNCaP tumor-bearing mice (Th227 counted in organs); assay type: in vivo, SCID mice; settings: 500 kBq/kg; for Th-227 in Blood / Th-227 in Femur bone / Th-227 in Kidneys / Th-227 in Liver / Th-227 in Spleen / Th-227 in Tumor / Th-227 in salivary glands: study b3004
Outline: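 Th227 in excised, weighed organs was counted with a Germanium detector at predetermined time points (n=3 mice each). This followed one i.v. injection of radiolabelled compound into testosterone-supplemented SCID mice carrying LNCaP xenografts in Matrigel, dosed once tumors reached ~50 mm^2.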

[3] = comparison of % injected dose per gram tissue

O=C(O)CC[C@H](NC(=O)N[C@@H](CCCCNC(=O)[C@@H](Cc1ccc2cccnc2c1)NC(=O)[C@H]1CC[C@H](CNC(=O)C[N+]23CCN4CCN5CC[N+]6(CC2)CC(=O)[O][227Th-2]36([O]C(=O)C4)[O]C(=O)C5)CC1)C(=O)O)C(=O)O [Example 45-B-227Th, (3R,10S,14S)-1,4,12-trioxo-3-[(quinolin-7-yl)methyl]-1-{(1r,4S)-4-[(2-{4,7,10-tris[(carboxy-kappaO)methyl]-1,4,7,10-tetraazacyclododecan-1-yl-kappa^2N^1,N^4}acetamido)methyl]cyclohexyl}-2,5,11,13-tetraazahexadecane-10,14,16-tricarboxylato(3−)(^227Th)Thorium]
Proliferation assay on cancer cell lines by TTCs Default Pivot #3 IC50 [kBq/mL] VCap 4000cells 375kBq/nmol (mean) (VCaP cells): 0.94 kBq/mL
Proliferation assay on cancer cell lines by TTCs Default Pivot #3 IC50 [kBq/mL] C4-2 1000cells 375kBq/nmol (mean) (C4-2 cells): 1.02 kBq/mL
Proliferation assay on cancer cell lines by TTCs Default Pivot #3 IC50 [kBq/mL] LnCap 1000cells 375kBq/nmol (mean) (LNCaP cells): 0.14 kBq/mL

O=C(O)CC[C@H](NC(=O)N[C@@H](CCCCNC(=O)[C@@H](Cc1ccc2cnccc2c1)NC(=O)[C@H]1CC[C@H](CNC(=O)C[N+]23CCN4CCN5CC[N+]6(CC2)CC(=O)[O][227Th-2]36([O]C(=O)C4)[O]C(=O)C5)CC1)C(=O)O)C(=O)O [Example 44-B-227Th, (3R,10S,14S)-3-[(isoquinolin-6-yl)methyl]-1,4,12-trioxo-1-{(1r,4S)-4-[(2-{4,7,10-tris[(carboxy-kappaO)methyl]-1,4,7,10-tetraazacyclododecan-1-yl-kappa^2N^1,N^4}acetamido)methyl]cyclohexyl}-2,5,11,13-tetraazahexadecane-10,14,16-tricarboxylato(3−)(^227Th)Thorium]
Proliferation assay on cancer cell lines by TTCs Default Pivot #3 IC50 [kBq/mL] VCap 4000cells 375kBq/nmol (mean) (VCaP cells): 0.71 kBq/mL
Proliferation assay on cancer cell lines by TTCs Default Pivot #3 IC50 [kBq/mL] C4-2 1000cells 375kBq/nmol (mean) (C4-2 cells): 0.67 kBq/mL
Proliferation assay on cancer cell lines by TTCs Default Pivot #3 IC50 [kBq/mL] LnCap 1000cells 375kBq/nmol (mean) (LNCaP cells): 0.08 kBq/mL

O=C(O)CC[C@H](NC(=O)N[C@@H](CCCCNC(=O)[C@@H](Cc1ccc2ccncc2c1)NC(=O)[C@H]1CC[C@H](CNC(=O)C[N+]23CCN4CCN5CC[N+]6(CC2)CC(=O)[O][227Th-2]36([O]C(=O)C4)[O]C(=O)C5)CC1)C(=O)O)C(=O)O [Example 42-B-227Th, (3R,10S,14S)-3-[(isoquinolin-7-yl)methyl]-1,4,12-trioxo-1-{(1r,4S)-4-[(2-{4,7,10-tris[(carboxy-kappaO)methyl]-1,4,7,10-tetraazacyclododecan-1-yl-kappa^2N^1,N^4}acetamido)methyl]cyclohexyl}-2,5,11,13-tetraazahexadecane-10,14,16-tricarboxylato(3−)(^227Th)Thorium]
Proliferation assay on cancer cell lines by TTCs Default Pivot #3 IC50 [kBq/mL] VCap 4000cells 375kBq/nmol (mean) (VCaP cells): 0.70 kBq/mL
Proliferation assay on cancer cell lines by TTCs Default Pivot #3 IC50 [kBq/mL] C4-2 1000cells 375kBq/nmol (mean) (C4-2 cells): 0.72 kBq/mL
Proliferation assay on cancer cell lines by TTCs Default Pivot #3 IC50 [kBq/mL] LnCap 1000cells 375kBq/nmol (mean) (LNCaP cells): 0.10 kBq/mL

Cc1cc(C(=O)NCCN(CCCN(CCNC(=O)c2cc(C)n(CC(=O)O)c(=O)c2[O-])CCNC(=O)c2cc(C)n(CC(=O)NCC3CCC(C(=O)NC(Cc4ccc5ccccc5c4)C(=O)NCCCCC(NC(=O)NC(CCC(=O)O)C(=O)O)C(=O)O)CC3)c(=O)c2[O-])CCNC(=O)c2cc(C)n(CC(=O)NCC3CCC(C(=O)NC(Cc4ccc5ccccc5c4)C(=O)NCCCCC(NC(=O)NC(CCC(=O)O)C(=O)O)C(=O)O)CC3)c(=O)c2[O-])c([O-])c(=O)n1CC(=O)O.[227Th+4] (stereo not shown) [1-C dimer-227Th]
Proliferation assay on cancer cell lines by TTCs Default Pivot #3 IC50 [kBq/mL] VCap 4000cells 375kBq/nmol (mean) (VCaP cells): 1.55 kBq/mL
Proliferation assay on cancer cell lines by TTCs Default Pivot #3 IC50 [kBq/mL] C4-2 1000cells 375kBq/nmol (mean) (C4-2 cells): 1.12 kBq/mL
Proliferation assay on cancer cell lines by TTCs Default Pivot #3 IC50 [kBq/mL] 22Rv1 1000cells 375kBq/nmol (mean) (22Rv1 cells): 1.04 kBq/mL
T/Carea ([1]; Example II, day 33 after start of therapy, 375 kBq/kg weekly for 5 weeks): 0.60
T/Carea ([1]; Example II, day 33 after start of therapy, 750 kBq/kg weekly for 5 weeks): 0.34
T/Carea ([1]; Example IV, day 36 after start of therapy, once 1 MBq/kg): 0.48
Accumulation in the tumor (in words) [2, 3]: much higher accumulation in the tumor
Background in blood, liver and spleen (in words) [2, 3]: lower background compared to 1-F-227Th
Th-227 in Blood ([2]; 1 h): 0.90 % ID Th-227/g organ
Th-227 in Femur bone ([2]; 1 h): 1.39 % ID Th-227/g organ
Th-227 in Kidneys ([2]; 1 h): 120.74 % ID Th-227/g organ
Th-227 in Liver ([2]; 1 h): 1.49 % ID Th-227/g organ
Th-227 in Spleen ([2]; 1 h): 2.33 % ID Th-227/g organ
Th-227 in Tumor ([2]; 1 h): 19.99 % ID Th-227/g organ
Th-227 in salivary glands ([2]; 1 h): 5.02 % ID Th-227/g organ
Th-227 in Blood ([2]; 24 h): 0.07 % ID Th-227/g organ
Th-227 in Femur bone ([2]; 24 h): 1.65 % ID Th-227/g organ
Th-227 in Kidneys ([2]; 24 h): 102.45 % ID Th-227/g organ
Th-227 in Liver ([2]; 24 h): 1.34 % ID Th-227/g organ
Th-227 in Spleen ([2]; 24 h): 1.50 % ID Th-227/g organ
Th-227 in Tumor ([2]; 24 h): 14.49 % ID Th-227/g organ
Th-227 in salivary glands ([2]; 24 h): 1.39 % ID Th-227/g organ
Th-227 in Blood ([2]; 72 h): 0.01 % ID Th-227/g organ
Th-227 in Femur bone ([2]; 72 h): 1.25 % ID Th-227/g organ
Th-227 in Kidneys ([2]; 72 h): 2.10 % ID Th-227/g organ
Th-227 in Liver ([2]; 72 h): 1.02 % ID Th-227/g organ
Th-227 in Spleen ([2]; 72 h): 0.76 % ID Th-227/g organ
Th-227 in Tumor ([2]; 72 h): 8.99 % ID Th-227/g organ
Th-227 in salivary glands ([2]; 72 h): 0.77 % ID Th-227/g organ
Th-227 in Blood ([2]; 168 h): 0.01 % ID Th-227/g organ
Th-227 in Femur bone ([2]; 168 h): 1.76 % ID Th-227/g organ
Th-227 in Kidneys ([2]; 168 h): 17.42 % ID Th-227/g organ
Th-227 in Liver ([2]; 168 h): 1.28 % ID Th-227/g organ
Th-227 in Spleen ([2]; 168 h): 1.24 % ID Th-227/g organ
Th-227 in Tumor ([2]; 168 h): 8.68 % ID Th-227/g organ
Th-227 in salivary glands ([2]; 168 h): 1.17 % ID Th-227/g organ
Th-227 in Blood ([2]; 336 h): 0.00 % ID Th-227/g organ
Th-227 in Femur bone ([2]; 336 h): 1.55 % ID Th-227/g organ
Th-227 in Kidneys ([2]; 336 h): 5.40 % ID Th-227/g organ
Th-227 in Liver ([2]; 336 h): 1.06 % ID Th-227/g organ
Th-227 in Spleen ([2]; 336 h): 0.73 % ID Th-227/g organ
Th-227 in Tumor ([2]; 336 h): 2.85 % ID Th-227/g organ
Th-227 in salivary glands ([2]; 336 h): 1.20 % ID Th-227/g organ

COc1c(C[C@@H](NC(=O)c2ccc(CNC(=O)CN3CCN(CC(=O)[O-])CCN(CC(=O)[O-])CCN(CC(=O)[O-])CC3)cn2)C(=O)NCCCC[C@H](NC(=O)N[C@@H](CCC(=O)O)C(=O)O)C(=O)O)ccc2ccccc12.[227Th+4] [Example 33a-B-227Th, (3R,10S,14S)-3-[(1-methoxynaphthalen-2-yl)methyl]-1,4,12-trioxo-1-{5-[(2-{4,7,10-tris[(carboxy-kappaO)methyl]-1,4,7,10-tetraazacyclododecan-1-yl-kappa^2N^1,N^4}acetamido)methyl]pyridin-2-yl}-2,5,11,13-tetraazahexadecane-10,14,16-tricarboxylato(3−)(^227Th)Thorium]
Proliferation assay on cancer cell lines by TTCs Default Pivot #3 IC50 [kBq/mL] VCap 4000cells 375kBq/nmol (mean) (VCaP cells): 1.22 kBq/mL
Proliferation assay on cancer cell lines by TTCs Default Pivot #3 IC50 [kBq/mL] C4-2 1000cells 375kBq/nmol (mean) (C4-2 cells): 4.63 kBq/mL
Proliferation assay on cancer cell lines by TTCs Default Pivot #3 IC50 [kBq/mL] LnCap 1000cells 375kBq/nmol (mean) (LNCaP cells): 0.20 kBq/mL
